The NIST ThermoML archive (doi:10.1016/j.fluid.2006.01.008)

Assays:
[1] = 298.15 K, 101.33 kPa, Liquid; for viscosity: Capillary tube (Ostwald / Ubbelohde) method; for speed of sound: Sing-around technique in a fixed-path interferometer; for mass density: Vibrating tube method
[2] = refractive index (Na D-line) (dimensionless); conditions: 298.15 K; 101.33 kPa; Liquid; Standard Abbe refractometry
[3] = refractive index (Na D-line) (dimensionless); xn = mol fraction of the nth substance listed; conditions: 298.15 K, 101 kPa, Liquid, Standard Abbe refractometry
[4] = xn = mol fraction of the nth substance listed; conditions: 298.15 K, 101 kPa, Liquid; for viscosity: Capillary tube (Ostwald / Ubbelohde) method; for speed of sound: Sing-around technique in a fixed-path interferometer; for mass density: Vibrating tube method

CCCCCCCC[n+]1ccn(C)c1.F[B-](F)(F)F [1-methyl-3-octylimidazolium tetrafluoroborate]
Conditions | mass density [kg/m3] | refractive index | speed of sound [m/s] | viscosity [mPa·s]
[1] | 1105.3 | – | 1491 | 359.9
[2] | – | 1.43422 | – | –

CCCCCCCC[n+]1ccn(C)c1.F[B-](F)(F)F [1-methyl-3-octylimidazolium tetrafluoroborate] + CC(C)O
Conditions | mass density, [4] [kg/m3] | refractive index, [3] | speed of sound, [4] [m/s] | viscosity, [4] [mPa·s]
x1 = 0.0459 | 826.83 | 1.38385 | 1170 | 2.956
x1 = 0.0892 | 862.39 | 1.39059 | 1198 | 3.955
x1 = 0.182 | 921.09 | 1.40147 | 1254 | 7.053
x1 = 0.2506 | 953.75 | 1.40743 | 1291 | 10.15
x1 = 0.2965 | 972 | 1.41077 | 1312 | 12.88
x1 = 0.3677 | 996.08 | 1.41503 | 1343 | 18.27
x1 = 0.4214 | 1011.52 | 1.41781 | 1362 | 23.79
x1 = 0.4798 | 1026.24 | 1.42048 | 1381 | 31.66
x1 = 0.5028 | 1031.53 | 1.42134 | 1387 | 35.48
x1 = 0.6166 | 1054.39 | 1.42547 | 1416 | 61.95
x1 = 0.7089 | 1069.7 | 1.42817 | 1437 | 96.3
x1 = 0.7558 | 1076.59 | 1.42938 | 1446 | 120.5
x1 = 0.8697 | 1091.33 | 1.43182 | 1467 | 202.6

CCCCCCCC[n+]1ccn(C)c1.F[B-](F)(F)F [1-methyl-3-octylimidazolium tetrafluoroborate] + CCCO
Conditions | mass density, [4] [kg/m3] | refractive index, [3] | speed of sound, [4] [m/s] | viscosity, [4] [mPa·s]
x1 = 0.0473 | 844.63 | 1.39108 | 1232 | 2.789
x1 = 0.0982 | 883.64 | 1.3978 | 1256 | 3.942
x1 = 0.2034 | 943.18 | 1.40783 | 1306 | 7.531
x1 = 0.241 | 959.69 | 1.41061 | 1321 | 9.169
x1 = 0.2958 | 980.53 | 1.41405 | 1343 | 12.21
x1 = 0.4007 | 1012.5 | 1.41928 | 1377 | 20.65
x1 = 0.4355 | 1021.38 | 1.42071 | 1387 | 24.52
x1 = 0.4988 | 1035.79 | 1.42301 | 1403 | 33.31
x1 = 0.5506 | 1046.19 | 1.42472 | 1414 | 43.39
x1 = 0.6165 | 1057.95 | 1.42671 | 1428 | 59.9
x1 = 0.6778 | 1067.63 | 1.42832 | 1439 | 79.52
x1 = 0.7828 | 1081.97 | 1.43069 | 1457 | 130.9
x1 = 0.9118 | 1096.63 | 1.43297 | 1477 | 238.4

CCCCCCCC[n+]1ccn(C)c1.F[B-](F)(F)F [1-methyl-3-octylimidazolium tetrafluoroborate] + CCO
Conditions | mass density, [4] [kg/m3] | refractive index, [3] | speed of sound, [4] [m/s] | viscosity, [4] [mPa·s]
x1 = 0.0517 | 849.43 | 1.37489 | 1195 | 1.74
x1 = 0.0818 | 878.24 | 1.38179 | 1218 | 2.25
x1 = 0.1822 | 946.85 | 1.39805 | 1287 | 4.722
x1 = 0.2779 | 988.78 | 1.40778 | 1336 | 8.542
x1 = 0.378 | 1019.53 | 1.41488 | 1376 | 14.99
x1 = 0.46 | 1038.64 | 1.41926 | 1398 | 23.42
x1 = 0.5474 | 1054.97 | 1.42304 | 1419 | 37.38
x1 = 0.5537 | 1056.01 | 1.42326 | 1420 | 38.62
x1 = 0.5636 | 1057.63 | 1.42362 | 1422 | 40.81
x1 = 0.6203 | 1066.22 | 1.4256 | 1434 | 54.88
x1 = 0.662 | 1071.9 | 1.42683 | 1441 | 67.91
x1 = 0.7749 | 1085.35 | 1.42973 | 1459 | 120.4
x1 = 0.9286 | 1099.7 | 1.43293 | 1481 | 251.9

CCCCCCCC[n+]1ccn(C)c1.F[B-](F)(F)F [1-methyl-3-octylimidazolium tetrafluoroborate] + CO
Conditions | mass density, [4] [kg/m3] | refractive index, [3] | speed of sound, [4] [m/s] | viscosity, [4] [mPa·s]
x1 = 0.0495 | 869.02 | 1.35534 | 1188 | 0.981
x1 = 0.0979 | 921.23 | 1.3733 | 1243 | 1.622
x1 = 0.1997 | 986.4 | 1.39501 | 1323 | 3.85
x1 = 0.2859 | 1018.55 | 1.40551 | 1366 | 7.131
x1 = 0.3648 | 1038.89 | 1.41222 | 1394 | 11.81
x1 = 0.4461 | 1054.52 | 1.41738 | 1416 | 18.9
x1 = 0.4922 | 1061.78 | 1.41982 | 1426 | 24.16
x1 = 0.5121 | 1064.62 | 1.42076 | 1430 | 27.22
x1 = 0.5709 | 1072.21 | 1.42339 | 1440 | 38.28
x1 = 0.5972 | 1075.25 | 1.42443 | 1445 | 44.63
x1 = 0.6485 | 1080.67 | 1.42629 | 1452 | 57.72
x1 = 0.785 | 1092.37 | 1.43029 | 1469 | 123.9
x1 = 0.9049 | 1100.21 | 1.43284 | 1482 | 228.6

CCO [ethanol]
Conditions | mass density [kg/m3] | refractive index | speed of sound [m/s] | viscosity [mPa·s]
[1] | 785.22 | – | 1144 | 1.077
[2] | – | 1.3592 | – | –

CO [methanol]
Conditions | mass density [kg/m3] | refractive index | speed of sound [m/s] | viscosity [mPa·s]
[1] | 786.63 | – | 1102 | 0.541
[2] | – | 1.3264 | – | –

CCCO [propan-1-ol]
Conditions | mass density [kg/m3] | refractive index | speed of sound [m/s] | viscosity [mPa·s]
[1] | 799.47 | – | 1207 | 1.928
[2] | – | 1.38306 | – | –

CC(C)O [propan-2-ol]
Conditions | mass density [kg/m3] | refractive index | speed of sound [m/s] | viscosity [mPa·s]
[1] | 780.95 | – | 1140 | 2.054
[2] | – | 1.3752 | – | –
